Legend:
mTOR = test: Intracellular S6 phosphorylation in engineered T cells; format: cell-based, human; details: 1 μM (also printed 1 mM) during production; live CD8+ T cells
Protocol: CD4+ and CD8+ T cells were isolated by immunoaffinity-based enrichment from leukapheresis samples from human donor subjects. […] The T cells cultured with our without Compound 63 were incubated overnight (approximately 24 hr) at 37° C., and were then transduced in serum-free culture media with our without Compound 63 ([…]) with a lentiviral vector encoding an anti-CD19 CAR. […] Following transduction, the cells were incubated in serum free media without recombinant cytokines (basal media) and with or without Compound 63 (1 mM) and allowed to incubate at about 37.0° C. in an incubator for up to 96 hours after initiation of the stimulation with the anti-CD3/anti-CD28 oligomeric stimulatory reagent (until day 5 of the process). […] Following incubation CD4+ and CD8+ T cells from each donor were harvested, formulated, and cryofrozen. The cryofrozen engineered CD4+ and CD8+ T cells were thawed, and T cells were assessed for intracellular S6 phosphorylation, a ribosomal protein and marker of mTOR inhibition, and co-stained for surface expression of CD4 or CD8 and for CCR7 and CD45RA as markers of memory subsets. pS6 expression in live CD8+ T cells by memory subsets was shown by the expression of CCR7 and CD45RA as shown in FIG. 16A.

CD4+ and CD8+ T cells [1] = test: Viability and live cell count of engineered T cell composition; format: cell-based, human; details: with vs without compound during production
CAR-T cells = test: Intracellular caspase expression in thawed CAR-T cells; format: cell-based, human; details: vs cells not incubated with compound
Protocol: (§1) CD4+ and CD8+ T cells were isolated by immunoaffinity-based enrichment from leukapheresis samples from human donor subjects. At day 1, isolated CD4+ and CD8+ T cells were mixed 1:1 and stimulated with an anti-CD3/anti-CD28 oligomeric stimulatory reagent generated as described in Example 1 in serum-free media supplemented with recombinant IL-2 (100 IU/mL), recombinant IL-7 (600 IU/mL), and recombinant IL-15 (100 IU/mL) with or without 1 μM of 2-(3-hydroxyphenyl)-9-(2-isopropylphenyl)-8-oxo-8,9-dihydro-7H-purine-6-carboxamide (Compound 63). The T cells cultured with our without Compound 63 were incubated overnight (approximately 24 hr) at 37° C., and were then transduced in serum-free culture media with our without Compound 63 ([…]) with a lentiviral vector encoding an anti-CD19 CAR. The CAR contained an scFv antigen-binding domain specific for CD19 (derived from FMC63), a CD28 transmembrane region, a 4-1BB costimulatory signaling region, and a CD3-zeta derived intracellular signaling domain. Following transduction, the cells were incubated in serum free media without recombinant cytokines (basal media) and with or without Compound 63 (1 mM) and allowed to incubate at about 37.0° C. in an incubator for up to 96 hours after initiation of the stimulation with the anti-CD3/anti-CD28 oligomeric stimulatory reagent (until day 5 of the process). […]

[2] = system: CD8+ T cells and CD4+ T cells; test: CD27/CCR7 phenotypic subset profile by flow cytometry; format: cell-based, human
Protocol: as §1

CD4+ and CD8+ T cells [3] = test: Intracellular cytokines after PMA/Ionomycin and Golgi inhibitor; format: cell-based, human; details: PMA/Ionomycin stimulation; engineered CD8+ and CD4+ T cells
Protocol: as §1

anti-CD19 CAR T cells = test: Long-term stimulation with anti-idiotype antibody beads, expansion and survival; format: cell-based, human; details: 12 days, anti-ID antibody beads
Protocol: as §1, with “domain.” for “domain. Following transduction, the cells were incubated in serum free media without recombinant cytokines (basal media) and with or without Compound 63 (1 mM) and allowed to incubate at about 37.0° C. in an incubator for up to 96 hours after initiation of the stimulation with the anti-CD3/anti-CD28 oligomeric stimulatory reagent (until day 5 of the process).”
To further assess the functional activity of the cells, the generated T cell compositions were stimulated long-term over 12 days with beads conjugated with an anti-idiotype (ID) antibody against the anti-CD19 CAR, and expansion and survival of the cells were monitored (FIG. 17F, left panel) and total expansion metric calculated by area under the growth curve (FIG. 17F, right panel, AUC).

[4] = molecular target: T1, mutein streptavidin designated Strep-tactin® (e.g. containing the sequence set forth in SEQ ID NO: 4) (Streptomyces avidinii, UniProt P22629, E68V/S69T/V71R); details: general statement in the description, no experiment described; read-out: binding affinity KD for Strep-tactin®; cited from earlier work
T1 construct: N-terminal methionine in place of Ala13 (N)
T1 sequence (P22629 other isoform, or with tags, fused parts or gaps E68V/S69T/V71R): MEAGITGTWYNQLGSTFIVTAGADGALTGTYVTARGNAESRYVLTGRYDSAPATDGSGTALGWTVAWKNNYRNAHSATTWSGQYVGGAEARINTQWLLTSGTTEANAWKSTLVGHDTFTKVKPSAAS

| Molecule | pS6 mean fluorescence intensity of memory T cell subsets (Temra, Tem, Tcm) (mTOR) | percentage of viable cells over time (CD4+ and CD8+ T cells [1]) | total number of viable cells over time (CD4+ and CD8+ T cells [1]) | intracellular caspase expression (CAR-T cells) | phenotypic subset profile by CD27 and/or CCR7 expression [2] | level of intracellular cytokines IL2, IFNg, or TNF (CD4+ and CD8+ T cells [3]) | function (expansion, AUC) following long-term CAR-specific stimulation (anti-CD19 CAR T cells) | Kd [4] [µM] |
| --- | --- | --- | --- | --- | --- | --- | --- | --- |
| CC(C)c1ccccc1-n1c(=O)[nH]c2c(C(N)=O)nc(-c3cccc(O)c3)nc21 [Compound 63, 2-(3-hydroxyphenyl)-9-(2-isopropylphenyl)-8-oxo-8,9-dihydro-7H-purine-6-carboxamide] | decreased | no significant effect | no significant effect | less | did not substantially alter | substantially improved | improved function | – |
| WSHPQFEK [Strep-tag® II] | – | – | – | – | – | – | – | ~1 |

From US20250283037A1, “METHODS FOR STIMULATING AND TRANSDUCING T CELLS” (Juno Therapeutics GmbH, priority 2021, published 2025)
